Experiments:
Assay type in all cases: in vivo
Plutella xylostella = assay: Example B5: activity against Plutella xylostella (diamond back moth), artificial diet, eggs; conditions: 192 h, 8 days after infestation, read-out: effect in at least one of the two categories (mortality or growth inhibition)
Method in brief: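 Artificial diet in 24-well plates was treated with aqueous dilutions of DMSO stocks, dried, then infested with Plutella eggs. Mortality and growth inhibition were scored against untreated samples 8 days after infestation; application rate 200 ppm.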

Euschistus heros = assay: Example B3: activity against Euschistus heros (neotropical brown stink bug), soybean leaves; conditions: 120 h, N2 nymphs, 5 days after infestation, read-out: effect in at least one of the two categories (mortality or growth inhibition)
Experimental: Soybean leaves on agar in 24-well microtiter plates were sprayed with aqueous test solutions prepared from 10′000 ppm DMSO stock solutions. After drying the leaves were infested with N2 nymphs. The samples were assessed for mortality and growth inhibition in comparison to untreated samples 5 days after infestation. The following compounds gave an effect of at least 80% in at least one of the two categories (mortality or growth inhibition) at an application rate of 200 ppm: […]

Spodoptera littoralis = assay: Example B6: activity against Spodoptera littoralis (Egyptian cotton leaf worm), cotton leaf discs; conditions: foliar, 72 h, 200 ppm, L1 larvae, 3 days after infestation, read-out: control (at least one of mortality, anti-feedant effect, growth inhibition)
Method in brief: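 Leaf discs on agar sprayed with aqueous dilutions of 10′000 ppm DMSO stocks, dried, then infested with five L1 larvae. Mortality, anti-feeding and growth inhibition scored versus untreated 3 days after infestation; control given when any category exceeds untreated.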

Diabrotica balteata = assay: Example B2: activity against Diabrotica balteata (corn root worm), maize sprouts; conditions: 96 h, L2 larvae, 4 days after infestation, read-out: effect in at least one of the two categories (mortality or growth inhibition)
Method in brief: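 Maize sprouts on agar were sprayed with aqueous test solutions made from 10′000 ppm DMSO stocks, dried, then infested with 6–10 L2 larvae per well. Mortality and growth inhibition were scored against untreated samples 4 days after infestation, at an application rate of 200 ppm.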

Chilo suppressalis = assay: Example B1: activity against Chilo suppressalis (striped rice stemborer), artificial diet; conditions: 144 h, 200 ppm, L2 larvae, 6 days after infestation, read-out: control (at least one of mortality, anti-feedant effect, growth inhibition)
Method in brief: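 Diet-incorporation surface assay: aqueous dilutions of 10'000 ppm DMSO stock applied to artificial diet, dried; 6-8 L2 larvae/well; read day 6 post-infestation for mortality, antifeedant effect, growth inhibition vs untreated. Active if any category above untreated.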

Pseudoplusia includens = assay: Example B9: Pseudoplusia includens (soybean looper), larvicide, feeding/contact, soybean plants; conditions: Chrysodeixis includens, 120 h; 50 ppm; L2 larvae; 5 days after infestation; read-out: effect in at least one of the two categories (mortality or growth inhibition)
Experimental: Soybean plants were treated in a spray chamber, cut off and placed into petri dishes containing wet filter paper. 1d after application leaves were infested with 5 L2 larvae and covered with a fabric filter and plastic lids. 5 days after infestation the samples were assessed for mortality and growth inhibition. The following compounds gave an effect of at least 80% in at least one of the two categories (mortality or growth inhibition) at an application rate of 50 ppm: […]

Myzus persicae [1] = assay: Example B4: activity against Myzus persicae (green peach aphid), intrinsic activity; conditions: 120 h, test rate 12 ppm, 5 days after infestation
Experimental: Test compounds prepared from 10′000 ppm DMSO stock solutions were applied by pipette into 24-well microtiter plates and mixed with sucrose solution. The plates were closed with a stretched Parafilm. A plastic stencil with 24 holes was placed onto the plate and infested pea seedlings were placed directly on the Parafilm. The infested plate was closed with a gel blotting paper and another plastic stencil and then turned upside down. The samples were assessed for mortality 5 days after infestation.

Myzus persicae [2] = assay: Example B7b: Myzus persicae feeding/contact activity, eggplant leaf discs; conditions: foliar, 144 h, mixed ages, 6 days after infestation
Experimental: Eggplant leaf discs were placed onto agar in a 24-well microtiter plate and sprayed with aqueous test solutions prepared from 10′000 ppm DMSO stock solutions. After drying, the leaf discs were infested with an aphid population of mixed ages. The samples were assessed for mortality 6 days after infestation.

CNC(=O)c1cnc(-n2ncnc2[C@H](C)Nc2ncnc3c(C(F)(F)F)cc(Cl)cc23)s1 [Compound P7, 2-[5-[(1S)-1-[[6-chloro-8-(trifluoromethyl)quinazolin-4-yl]amino]ethyl]-1,2,4-triazol-1-yl]-N-methyl-thiazole-5-carboxamide]
≥ 80%: percent effect (mortality or growth inhibition) at 200 ppm (Plutella xylostella) | percent effect (mortality or growth inhibition) at 200 ppm (Euschistus heros) | percent control (mortality, anti-feedant effect or growth inhibition) at 200 ppm (Spodoptera littoralis) | percent effect (mortality or growth inhibition) at 200 ppm (Diabrotica balteata) | percent control (mortality, anti-feedant effect or growth inhibition) at 200 ppm (Chilo suppressalis)

CNC(=O)c1cc(-n2ncnc2[C@H](C)N(C)c2ncnc3c(Cl)cc(C(F)(F)F)cc23)ncn1 [Compound P15, 6-[5-[(1S)-1-[[8-chloro-6-(trifluoromethyl)quinazolin-4-yl]-methyl-amino]ethyl]-1,2,4-triazol-1-yl]-N-methyl-pyrimidine-4-carboxamide]
≥ 80%: percent effect (mortality or growth inhibition) at 200 ppm (Plutella xylostella) | percent effect (mortality or growth inhibition) at 200 ppm (Euschistus heros) | percent effect (mortality or growth inhibition) at 50 ppm (Pseudoplusia includens) | percent control (mortality, anti-feedant effect or growth inhibition) at 200 ppm (Spodoptera littoralis) | percent effect (mortality or growth inhibition) at 200 ppm (Diabrotica balteata) | percent control (mortality, anti-feedant effect or growth inhibition) at 200 ppm (Chilo suppressalis) | mortality at 12 ppm (Myzus persicae [1])

CNC(=O)c1cc(-n2ncnc2[C@H](C)Nc2ncnc3c(Cl)cc(C(F)(F)F)cc23)ncn1 [Compound P16, 6-[5-[(1S)-1-[[8-chloro-6-(trifluoromethyl)quinazolin-4-yl]amino]ethyl]-1,2,4-triazol-1-yl]-N-methyl-pyrimidine-4-carboxamide]
≥ 80%: percent effect (mortality or growth inhibition) at 200 ppm (Plutella xylostella) | percent effect (mortality or growth inhibition) at 50 ppm (Pseudoplusia includens) | percent control (mortality, anti-feedant effect or growth inhibition) at 200 ppm (Spodoptera littoralis) | percent effect (mortality or growth inhibition) at 200 ppm (Diabrotica balteata) | percent control (mortality, anti-feedant effect or growth inhibition) at 200 ppm (Chilo suppressalis) | mortality at 12 ppm (Myzus persicae [1])

CNC(=O)c1cc(-n2ncnc2[C@H](C)N(C)c2ncnc3c(I)cc(Cl)cc23)ncn1 [Compound P33, 6-[5-[(1S)-1-[(6-chloro-8-iodo-quinazolin-4-yl)-methyl-amino]ethyl]-1,2,4-triazol-1-yl]-N-methyl-pyrimidine-4-carboxamide]
≥ 80%: percent effect (mortality or growth inhibition) at 200 ppm (Plutella xylostella) | percent effect (mortality or growth inhibition) at 50 ppm (Pseudoplusia includens) | percent control (mortality, anti-feedant effect or growth inhibition) at 200 ppm (Spodoptera littoralis) | percent effect (mortality or growth inhibition) at 200 ppm (Diabrotica balteata) | percent control (mortality, anti-feedant effect or growth inhibition) at 200 ppm (Chilo suppressalis) | mortality at 12 ppm (Myzus persicae [1])

C[C@H](Nc1ncnc2c(Cl)cc(C(F)(F)F)cc12)c1ncnn1-c1ncc(C(N)=O)s1 [Compound P35, 2-[5-[(1S)-1-[[8-chloro-6-(trifluoromethyl)quinazolin-4-yl]amino]ethyl]-1,2,4-triazol-1-yl]thiazole-5-carboxamide]
≥ 80%: percent effect (mortality or growth inhibition) at 200 ppm (Plutella xylostella) | percent effect (mortality or growth inhibition) at 200 ppm (Euschistus heros) | percent control (mortality, anti-feedant effect or growth inhibition) at 200 ppm (Spodoptera littoralis) | percent effect (mortality or growth inhibition) at 200 ppm (Diabrotica balteata) | percent control (mortality, anti-feedant effect or growth inhibition) at 200 ppm (Chilo suppressalis) | mortality at 12 ppm (Myzus persicae [1])

C[C@H](Nc1ncnc2c(Br)cc(Br)cc12)c1ncnn1-c1cc(C#N)ncn1 [Compound P41, 6-[5-[(1S)-1-[(6,8-dibromoquinazolin-4-yl)amino]ethyl]-1,2,4-triazol-1-yl]pyrimidine-4-carbonitrile]
≥ 80%: mortality at 200 ppm (Myzus persicae [2]) | percent effect (mortality or growth inhibition) at 200 ppm (Plutella xylostella) | percent control (mortality, anti-feedant effect or growth inhibition) at 200 ppm (Spodoptera littoralis) | percent effect (mortality or growth inhibition) at 200 ppm (Diabrotica balteata) | percent control (mortality, anti-feedant effect or growth inhibition) at 200 ppm (Chilo suppressalis)

C[C@@H](c1ncnn1-c1cc(C(N)=O)ncn1)N(C)c1ncnc2c(I)cc(Cl)cc12 [Compound P47, 6-[5-[(1S)-1-[(6-chloro-8-iodo-quinazolin-4-yl)-methyl-amino]ethyl]-1,2,4-triazol-1-yl]pyrimidine-4-carboxamide]
≥ 80%: percent effect (mortality or growth inhibition) at 200 ppm (Plutella xylostella) | percent effect (mortality or growth inhibition) at 200 ppm (Euschistus heros) | percent effect (mortality or growth inhibition) at 50 ppm (Pseudoplusia includens) | percent control (mortality, anti-feedant effect or growth inhibition) at 200 ppm (Spodoptera littoralis) | percent effect (mortality or growth inhibition) at 200 ppm (Diabrotica balteata) | percent control (mortality, anti-feedant effect or growth inhibition) at 200 ppm (Chilo suppressalis) | mortality at 12 ppm (Myzus persicae [1])

C[C@@H](c1ncnn1-c1cc(C(N)=O)ncn1)N(C)c1ncnc2c(Br)cc(Br)cc12 [Compound P48, 6-[5-[(1S)-1-[(6,8-dibromoquinazolin-4-yl)-methyl-amino]ethyl]-1,2,4-triazol-1-yl]pyrimidine-4-carboxamide]
≥ 80%: percent effect (mortality or growth inhibition) at 200 ppm (Plutella xylostella) | percent effect (mortality or growth inhibition) at 200 ppm (Euschistus heros) | percent control (mortality, anti-feedant effect or growth inhibition) at 200 ppm (Spodoptera littoralis) | percent effect (mortality or growth inhibition) at 200 ppm (Diabrotica balteata) | percent control (mortality, anti-feedant effect or growth inhibition) at 200 ppm (Chilo suppressalis) | mortality at 12 ppm (Myzus persicae [1])

C[C@@H](c1ncnn1-c1cc(C(N)=O)ncn1)N(C)c1ncnc2c(Cl)cc(C(F)(F)F)cc12 [Compound P51, 6-[5-[(1S)-1-[[8-chloro-6-(trifluoromethyl)quinazolin-4-yl]-methyl-amino]ethyl]-1,2,4-triazol-1-yl]pyrimidine-4-carboxamide]
≥ 80%: percent effect (mortality or growth inhibition) at 200 ppm (Plutella xylostella) | percent effect (mortality or growth inhibition) at 200 ppm (Euschistus heros) | percent control (mortality, anti-feedant effect or growth inhibition) at 200 ppm (Spodoptera littoralis) | percent effect (mortality or growth inhibition) at 200 ppm (Diabrotica balteata) | percent control (mortality, anti-feedant effect or growth inhibition) at 200 ppm (Chilo suppressalis) | mortality at 12 ppm (Myzus persicae [1])

CNC(=O)c1cc(-n2ncnc2[C@H](C)Nc2ncnc3c(S(=O)(=O)C(F)(F)F)cc(Cl)cc23)ncn1 [Compound P60, 6-[5-[(1S)-1-[[6-chloro-8-(trifluoromethylsulfonyl)quinazolin-4-yl]amino]ethyl]-1,2,4-triazol-1-yl]-N-methyl-pyrimidine-4-carboxamide]
≥ 80%: percent effect (mortality or growth inhibition) at 200 ppm (Plutella xylostella) | percent effect (mortality or growth inhibition) at 200 ppm (Euschistus heros) | percent effect (mortality or growth inhibition) at 50 ppm (Pseudoplusia includens) | percent control (mortality, anti-feedant effect or growth inhibition) at 200 ppm (Spodoptera littoralis) | percent effect (mortality or growth inhibition) at 200 ppm (Diabrotica balteata) | percent control (mortality, anti-feedant effect or growth inhibition) at 200 ppm (Chilo suppressalis) | mortality at 12 ppm (Myzus persicae [1])

C[C@H](Nc1ncnc2c(C(F)(F)F)cc(Cl)cc12)c1ncnn1-c1cc(C(=O)N(C)CC#N)ncn1 [Compound P62, 6-[5-[(1S)-1-[[6-chloro-8-(trifluoromethyl)quinazolin-4-yl]amino]ethyl]-1,2,4-triazol-1-yl]-N-(cyanomethyl)-N-methyl-pyrimidine-4-carboxamide]
≥ 80%: percent effect (mortality or growth inhibition) at 200 ppm (Plutella xylostella) | percent effect (mortality or growth inhibition) at 50 ppm (Pseudoplusia includens) | percent control (mortality, anti-feedant effect or growth inhibition) at 200 ppm (Spodoptera littoralis) | percent effect (mortality or growth inhibition) at 200 ppm (Diabrotica balteata) | percent control (mortality, anti-feedant effect or growth inhibition) at 200 ppm (Chilo suppressalis) | mortality at 12 ppm (Myzus persicae [1])

C[C@H](Nc1ncnc2c(C(F)(F)F)cc(Cl)cc12)c1ncnn1-c1ncc(C(N)=O)cn1 [Compound P68, 2-[5-[(1S)-1-[[6-chloro-8-(trifluoromethyl)quinazolin-4-yl]amino]ethyl]-1,2,4-triazol-1-yl]pyrimidine-5-carboxamide]
≥ 80%: percent effect (mortality or growth inhibition) at 200 ppm (Euschistus heros)

C[C@H](Nc1ncnc2c(Br)cc(Br)cc12)c1ncnn1-c1cnc(C(N)=O)cn1 [Compound P74, 5-[5-[(1S)-1-[(6,8-dibromoquinazolin-4-yl)amino]ethyl]-1,2,4-triazol-1-yl]pyrazine-2-carboxamide]
≥ 80%: percent effect (mortality or growth inhibition) at 200 ppm (Plutella xylostella) | percent effect (mortality or growth inhibition) at 200 ppm (Euschistus heros) | percent control (mortality, anti-feedant effect or growth inhibition) at 200 ppm (Spodoptera littoralis)

C[C@H](Nc1ncnc2c(I)cc(Cl)cc12)c1ncnn1-c1cnc(C(N)=O)cn1 [Compound P75, 5-[5-[(1S)-1-[(6-chloro-8-iodo-quinazolin-4-yl)amino]ethyl]-1,2,4-triazol-1-yl]pyrazine-2-carboxamide]
≥ 80%: percent effect (mortality or growth inhibition) at 200 ppm (Plutella xylostella) | percent effect (mortality or growth inhibition) at 200 ppm (Euschistus heros) | percent control (mortality, anti-feedant effect or growth inhibition) at 200 ppm (Spodoptera littoralis) | percent effect (mortality or growth inhibition) at 200 ppm (Diabrotica balteata) | percent control (mortality, anti-feedant effect or growth inhibition) at 200 ppm (Chilo suppressalis) | mortality at 12 ppm (Myzus persicae [1])

From patent US20260132125A1, “PESTICIDALLY ACTIVE FUSED BICYCLIC HETEROAROMATIC COMPOUNDS” (priority 2022, published 2026)
